Test results: patent US20080221134A1, “8-ALKYNYLXANTHINES AND DERIVATIVES” (priority 2006, published 2008)
Read-outs that look alike come from different tables or passages of the source.

What was measured:
Rat A1 AR = target: T1, Rat A1 AR (Rattus norvegicus, UniProt P25099); assay: Radioligand binding assay 1, rat A1 adenosine receptor; details: rat cortex, [3H]CCPA
T1 construct: Rat brain preparations were used for A1- and A2A adenosine receptor (AR); from tissue; host or cells: rat cortex
T1 sequence (P25099 1-326): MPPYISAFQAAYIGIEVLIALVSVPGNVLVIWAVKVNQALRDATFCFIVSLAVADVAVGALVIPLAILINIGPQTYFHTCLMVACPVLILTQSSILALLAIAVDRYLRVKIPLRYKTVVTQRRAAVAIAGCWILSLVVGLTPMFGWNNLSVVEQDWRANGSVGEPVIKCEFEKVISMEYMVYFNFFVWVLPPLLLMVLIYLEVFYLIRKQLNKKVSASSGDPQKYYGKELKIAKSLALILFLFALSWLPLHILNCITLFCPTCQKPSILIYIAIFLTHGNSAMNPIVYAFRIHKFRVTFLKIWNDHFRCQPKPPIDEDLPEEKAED
Description: (§1) Rat brain preparations were used for A1- and A2A adenosine receptor (AR) and human recombinant cell samples for A1-, A2A- and A3 adenosine receptor radioligand binding studies. Affinity and selectivity was tested in displacement experiments with following radioligands: [^3H]CCPA for A1-adenosine receptors, [^3H]MSX-2 for A2A-receptors and [^3H]PSB-11 for A3-receptors. Results of these experiments are depicted in table 2b (human data) and table 2a (rat data). Radioligand binding test systems are e.g. generally described by Muller et al., Curr. Pharm. Des., 1996, 2, 501 and Weyler et al., ChemMedChem 2006, 1, 891 and references cited therein) These documents are incorporated herein by reference.

Rat A2A AR = target: T2, Rat A2A AR (Rattus norvegicus, UniProt P30543); assay: Radioligand binding assay 1, rat A2A adenosine receptor; details: rat striatum, [3H]MSX-2
T2 construct: A2A adenosine receptors from rat striatum; from tissue; host or cells: rat striatum
T2 sequence (P30543 whole entry): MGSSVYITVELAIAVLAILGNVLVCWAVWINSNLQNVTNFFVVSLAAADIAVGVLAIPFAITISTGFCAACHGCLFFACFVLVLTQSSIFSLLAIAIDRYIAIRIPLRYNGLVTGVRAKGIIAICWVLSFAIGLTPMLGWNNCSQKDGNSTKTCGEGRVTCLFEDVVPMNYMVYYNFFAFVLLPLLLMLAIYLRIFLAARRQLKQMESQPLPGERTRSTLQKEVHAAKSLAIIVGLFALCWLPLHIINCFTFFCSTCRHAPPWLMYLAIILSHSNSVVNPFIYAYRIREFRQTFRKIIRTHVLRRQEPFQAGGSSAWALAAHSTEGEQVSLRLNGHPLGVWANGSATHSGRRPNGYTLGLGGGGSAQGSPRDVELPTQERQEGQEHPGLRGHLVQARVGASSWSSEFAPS
Description: as §1

[1] = target: T3, A2A-adenosine receptor human recombinant (Homo sapiens, UniProt P29274); assay: Radioligand binding assay 1, human recombinant A2A adenosine receptor
T3 construct: expressed in transfected cells
T3 sequence (P29274 whole entry): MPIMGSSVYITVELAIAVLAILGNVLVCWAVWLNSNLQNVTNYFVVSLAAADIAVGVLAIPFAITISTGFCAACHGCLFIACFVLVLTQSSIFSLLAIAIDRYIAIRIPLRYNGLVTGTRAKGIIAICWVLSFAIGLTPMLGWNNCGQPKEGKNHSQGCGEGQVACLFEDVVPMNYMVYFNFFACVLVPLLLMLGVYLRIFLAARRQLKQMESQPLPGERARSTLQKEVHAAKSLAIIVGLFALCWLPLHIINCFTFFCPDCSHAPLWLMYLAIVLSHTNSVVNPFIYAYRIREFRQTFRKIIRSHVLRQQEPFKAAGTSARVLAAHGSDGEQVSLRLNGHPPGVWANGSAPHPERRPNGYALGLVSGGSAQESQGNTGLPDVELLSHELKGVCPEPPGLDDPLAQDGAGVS
Description: as §1

[2] = target: T4, A1-adenosine receptor human recombinant (Homo sapiens, UniProt P30542); assay: Radioligand binding assay 1, human recombinant A1 adenosine receptor; details: [3H]CCPA
T4 construct: expressed in transfected cells
T4 sequence (P30542 1-326): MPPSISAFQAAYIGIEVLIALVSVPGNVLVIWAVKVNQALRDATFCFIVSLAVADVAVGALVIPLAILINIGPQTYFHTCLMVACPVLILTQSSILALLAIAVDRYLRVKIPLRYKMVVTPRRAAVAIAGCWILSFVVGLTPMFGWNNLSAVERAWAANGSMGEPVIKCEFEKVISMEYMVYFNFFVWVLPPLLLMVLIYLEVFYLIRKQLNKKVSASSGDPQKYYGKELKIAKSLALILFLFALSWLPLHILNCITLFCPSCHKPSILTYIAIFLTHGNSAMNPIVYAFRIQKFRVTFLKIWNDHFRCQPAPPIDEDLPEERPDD
Description: as §1

[3] = human recombinant, [3H]MSX-2, read-out: A2A-adenosine receptor human recombinant [3H] MSX-2 Ki

SMILES: C#CCn1c(=O)c2c(nc(C#Cc3ccsc3)n2C)n(CC)c1=O [drawing 510]
- Ki (Rat A1 AR): > 1000 nM
- Ki (Rat A2A AR): 108 ± 31 nM

SMILES: C#CCn1c(=O)c2c(nc(C#Cc3cncn3C)n2C)n(CC)c1=O [drawing 511]
- Ki (Rat A1 AR): 460 ± 61 nM
- Ki (Rat A2A AR): 119 ± 26 nM

SMILES: C#CCn1c(=O)c2c(nc(C#Cc3ccc(OC)c(OC)c3)n2C)n(CCC)c1=O [drawing 515]
- Ki (Rat A1 AR): ≥ 1000 nM
- Ki (Rat A2A AR): 13.4 ± 6.5 nM

SMILES: C#CCn1c(=O)c2c(nc(C#Cc3ccc(OC)c(OC)c3)n2C)n(C(C)C)c1=O [drawing 516]
- Ki (Rat A1 AR): ≥ 1000 nM
- Ki (Rat A2A AR): 118 ± 19 nM

SMILES: C#CCn1c(=O)c2c(nc(C#Cc3ccc(OC)c(OC)c3)n2C)n(CC(C)C)c1=O [drawing 517]
- Ki (Rat A1 AR): ≥ 1000 nM
- Ki (Rat A2A AR): 5.54 ± 1.3 nM

SMILES: C#CCn1c(=O)c2c(nc(C#Cc3ccc(OC)c(OC)c3)n2C)n(CCF)c1=O [drawing 518]
- Ki (Rat A1 AR): ≥ 1000 nM
- Ki (Rat A2A AR): 9.99 ± 0.7 nM

SMILES: C#CCn1c(=O)c2c(nc(C#Cc3ccc(F)c(OC)c3)n2C)n(CC)c1=O [drawing 519]
- Ki (Rat A1 AR): > 1000 nM
- Ki (Rat A2A AR): 43.1 ± 13.2 nM

SMILES: C#CCn1c(=O)c2c(nc(C#Cc3ccc(OC)c(OC)c3)n2C)n(Cc2cccs2)c1=O [drawing 520]
- Ki (Rat A1 AR): > 1000 nM
- Ki (Rat A2A AR): 103 ± 21 nM

SMILES: C#CCn1c(=O)c2c(nc(C#Cc3ccc(OC)c(OC)c3)n2C)n(CC2CC2)c1=O [drawing 521]
- Ki (Rat A1 AR): > 1000 nM
- Ki (Rat A2A AR): 10.2 ± 4.2 nM

SMILES: C#CCn1c(=O)c2c(nc(C#Cc3ccc(OC)c(OC)c3)n2C)n(C(C)C(C)=O)c1=O (stereo not drawn) [drawing 524]
- Ki (Rat A1 AR): 157 ± 12 nM
- Ki (Rat A2A AR): 16 ± 6 nM

SMILES: C#CCn1c(=O)c2c(nc(C#Cc3ccc(OC)c(OC)c3)n2C)n(CC(C)=O)c1=O [drawing 525]
- Ki (Rat A1 AR): > 1000 nM
- Ki (Rat A2A AR): 18.5 ± 5 nM

SMILES: C#CCn1c(=O)c2c(nc(C#Cc3ccc(OC)c(OC)c3)n2C)n(Cc2cnc[nH]2)c1=O [drawing 527]
- Ki (Rat A1 AR): > 1000 nM
- Ki (Rat A2A AR): 28.8 ± 4.1 nM

SMILES: C#CCn1c(=O)c2c(nc(C#Cc3ccc(OC)c(OC)c3)n2C)n(CCCO)c1=O [drawing 533]
- Ki (Rat A1 AR): 337 ± 67 nM
- Ki (Rat A2A AR): 30.1 ± 5.4 nM

SMILES: C#CCn1c(=O)c2c(nc(C#Cc3cccc(C)c3)n2C)n(CCCO)c1=O [drawing 534]
- Ki (Rat A1 AR): 467 ± 6 nM
- Ki (Rat A2A AR): 47 ± 2 nM

SMILES: C#CCn1c(=O)c2c(nc(C#Cc3cccc(OC)c3)n2C)n(CCN(C)C)c1=O [drawing 536]
- Ki (Rat A1 AR): > 1000 nM
- Ki (Rat A2A AR): 161 ± 35 nM

SMILES: C#CCn1c(=O)c2c(nc(C#Cc3ccc(OC)c(OC)c3)n2C)n(CC(O)CO)c1=O (stereo not drawn) [drawing 537]
- Ki (Rat A1 AR): > 1000 nM
- Ki (Rat A2A AR): 42.3 ± 5.7 nM

SMILES: C#CCn1c(=O)c2c(nc(C#Cc3ccc(OC)c(OC)c3)n2C)n(CC(=O)OC)c1=O [drawing 546]
- Ki (Rat A1 AR): 286 ± 11 nM
- Ki (Rat A2A AR): 36.5 ± 6.1 nM

SMILES: C#CCn1c(=O)c2c(nc(C#Cc3ccc(Cl)c(Cl)c3)n2C)n(CC)c1=O [drawing 550]
- Ki (Rat A1 AR): > 1000 nM
- Ki (Rat A2A AR): 132 ± 96 nM

SMILES: C#CCn1c(=O)c2c(nc(C#Cc3ccccc3)n2C)n(C)c1=O [drawing 552]
- Ki ([1]; no full inhibition curve due to limited water-solubility, read-out: A2A-adenosine receptor human recombinant [3H] MSX-2 Ki, calculated by extrapolation): 314 ± 71 nM

SMILES: C#CCn1c(=O)c2c(nc(C#Cc3cccc(OC)c3)n2C)n(C)c1=O [drawing 553]
- Ki [2]: > 10000 nM
- Ki [1, 3]: 608 ± 111 nM

SMILES: C#CCn1c(=O)c2c(nc(C#Cc3ccc(OC)c(OC)c3)n2C)n(C)c1=O [drawing 554]
- Ki [2]: > 3000 nM
- Ki [1, 3]: 36.4 ± 0.6 nM

SMILES: C#CCn1c(=O)c2c(nc(C#Cc3cccc(C)c3)n2C)n(C)c1=O [drawing 555]
- Ki [2]: > 10000 nM
- Ki [1, 3]: 225 ± 52 nM

SMILES: C#CCn1c(=O)c2c(nc(C#Cc3cccc(Cl)c3)n2C)n(C)c1=O [drawing 556]
- Ki [2]: > 10000 nM
- Ki [1, 3]: 423 ± 28 nM

SMILES: C#CCn1c(=O)c2c(nc(C#Cc3cccc(OCCO)c3)n2C)n(C)c1=O [drawing 557]
- Ki [2]: > 1000 nM
- Ki [1, 3]: 226 ± 62 nM

SMILES: C#CCn1c(=O)c2c(nc(C#Cc3cccc(OCCCN(C)C)c3)n2C)n(C)c1=O [drawing 558]
- Ki [2]: 1740 ± 546 nM
- Ki [1, 3]: 11.6 ± 2.1 nM

SMILES: C#CCn1c(=O)c2c(nc(C#Cc3cccc(OCCOC)c3)n2C)n(C)c1=O [drawing 559]
- Ki [2]: > 1000 nM
- Ki [1, 3]: 28.9 ± 1.3 nM

SMILES: C#CCn1c(=O)c2c(nc(C#Cc3cccc(OCCN(C)C)c3)n2C)n(C)c1=O [drawing 560]
- Ki [2]: > 1000 nM
- Ki [1, 3]: 90.3 ± 13.7 nM

SMILES: C#CCn1c(=O)c2c(nc(C#Cc3ccc4c(c3)OCO4)n2C)n(C)c1=O [drawing 561]
- Ki [1, 3]: 52.3 ± 13.4 nM

SMILES: C#CCn1c(=O)c2c(nc(C#Cc3cccc(OCc4ccoc4)c3)n2C)n(C)c1=O [drawing 562]
- Ki [2]: > 1000 nM
- Ki [1, 3]: < 10 nM

SMILES: C#CCn1c(=O)[nH]c2nc(C#Cc3ccc(OC)c(OC)c3)n(C)c2c1=O [drawing 563]
- Ki [2]: > 1000 nM
- Ki [1, 3]: 18.4 ± 3 nM

SMILES: C#CCn1c(=O)c2c(nc(C#Cc3cccc(OC)c3)n2C)n(CCCO)c1=O [drawing 564]
- Ki [2]: > 3000 nM
- Ki [1, 3]: 5.5 ± 1.4 nM

SMILES: C#CCn1c(=O)c2c(nc(C#Cc3cccc(OC)c3)n2C)n(CC)c1=O [drawing 565]
- Ki [2]: > 3000 nM
- Ki [1, 3]: 64.8 ± 12 nM

SMILES: C#CCn1c(=O)c2c(nc(C#Cc3cccc(C)c3)n2C)n(CC)c1=O [drawing 566]
- Ki [2]: > 3000 nM
- Ki [1, 3]: 89.7 ± 16.1 nM

SMILES: C#CCn1c(=O)c2c(nc(C#Cc3ccc(OC)c(OC)c3)n2C)n(CC)c1=O [drawing 567]
- Ki [2]: > 1000 nM
- Ki [1, 3]: 17.7 ± 0.7 nM

SMILES: C#CCn1c(=O)c2c(nc(C#Cc3ccc(OC)c(OC)c3)n2C)n(CCN(C)C)c1=O [drawing 568]
- Ki [2]: > 20000 nM
- Ki [1, 3]: 51.7 ± 8.7 nM

SMILES: C#CCn1c(=O)c2c(nc(C#Cc3cccc(OC)c3)n2C)n(CC(O)CO)c1=O (stereo not drawn) [drawing 569]
- Ki [2]: > 3000 nM
- Ki [1, 3]: 175 ± 44 nM

SMILES: C#CCn1c(=O)c2c(nc(C#Cc3ccc(OC)c(OC)c3)n2C)n(CCCOP(=O)(O)O)c1=O [drawing 570]
- Ki [1, 3]: 50.7 ± 21.2 nM

SMILES: C#CCn1c(=O)c2c(nc(C#Cc3cccc(OC)c3)n2C)n(CC=C)c1=O [drawing 571]
- Ki [1, 3]: 35.6 ± 10.9 nM

SMILES: C#CCn1c(=O)c2c(nc(C#Cc3cccc(OC)c3)n2C)n(CCO)c1=O [drawing 572]
- Ki [1, 3]: 165 ± 14 nM

SMILES: C#CCn1c(=O)c2c(nc(C#Cc3ccc(OCC)c(OCC)c3)n2C)n(CC)c1=O [drawing 573]
- Ki [2]: > 1000 nM
- Ki [1, 3]: 83.4 ± 26.5 nM

SMILES: C#CCn1c(=O)c2c(nc(C#Cc3ccc(OC)c(OC)c3)n2C)n(CCOC)c1=O [drawing 574]
- Ki [2]: > 1000 nM
- Ki [1, 3]: 55.3 ± 4.3 nM

SMILES: C#CCn1c(=O)c2c(nc(C#Cc3ccc(OC)c(OC)c3)n2C)n(CCO)c1=O [drawing 575]
- Ki [2]: > 1000 nM
- Ki [1, 3]: 59.8 ± 35.7 nM

SMILES: C#CCn1c(=O)c2c(nc(C#Cc3ccc(OC)c(OC)c3)n2C)n(CCC2CO2)c1=O (stereo not drawn) [drawing 580]
- Ki [1, 3]: 96.3 ± 3.1 nM

SMILES: C#CCn1c(=O)c2c(nc(C#Cc3ccc(OC)c(OC)c3)n2C)n(C(C)C(C)=O)c1=O (stereo not drawn) [drawing 591]
- Ki [1, 3]: 54 nM

SMILES: C#CCn1c(=O)c2c(nc(C#Cc3ccc(OC)c(OC)c3)n2C)n(CC(C)=O)c1=O [drawing 592]
- Ki [1, 3]: 273 nM

SMILES: C#CCn1c(=O)c2c(nc(C#Cc3cccc(OC)c3)n2C)n(CCN(C)C)c1=O [drawing 594]
- Ki [1, 3]: 569 ± 10.7 nM

SMILES: C#CCn1c(=O)c2c(nc(C#Cc3cccc(OCCCO)c3)n2C)n(C)c1=O [drawing 596]
- Ki [1, 3]: 299 ± 72 nM

SMILES: C#CCn1c(=O)c2c(nc(C#Cc3ccsc3)n2C)n(CC)c1=O [drawing 599]
- Ki [1, 3]: 82.5 nM

SMILES: C#CCn1c(=O)c2c(nc(C#Cc3cncn3C)n2C)n(CC)c1=O [drawing 600]
- Ki [1, 3]: 82.1 ± 26 nM

SMILES: C#CCn1c(=O)c2c(nc(C#Cc3ccc(OC)c(OC)c3)n2C)n(C)c1=O [drawing 601]
- Ki [1, 3]: 89.7 ± 16.1 nM
